Source: PubChem BioAssay (NCI)
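The compound was tested at five concentrations on cells cultured in 96-well plates, with a 48-hour exposure period. TGI marks complete inhibition of growth.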

Experiments:
Experiment in all cases: NCI anticancer screen, dose series, 48 h
[1] = tested on: SNB-75 CNS
[2] = tested on: NCI-H23 lung
[3] = tested on: SK-MEL-28 melanoma
[4] = tested on: SN12C renal
[5] = tested on: SW-620 colon
[6] = tested on: COLO 205 colon
[7] = tested on: 786-0 renal
[8] = tested on: MOLT-4 leukemia
[9] = tested on: U251 CNS
[10] = tested on: IGROV1 ovarian
[11] = tested on: SK-MEL-2 melanoma
[12] = tested on: SF-268 CNS
[13] = tested on: OVCAR-4 ovarian
[14] = tested on: XF 498 CNS
[15] = tested on: TK-10 renal
[16] = tested on: ACHN renal
[17] = tested on: HOP-18 NSCLC
[18] = tested on: SK-OV-3 ovarian
[19] = tested on: M19-MEL melanoma
[20] = tested on: A549 NSCLC
[21] = tested on: SR leukemia
[22] = tested on: SF-295 CNS
[23] = tested on: OVCAR-5 ovarian
[24] = tested on: SF-539 CNS
[25] = tested on: SNB-19 CNS
[26] = tested on: DLD-1 colon
[27] = tested on: UACC-257 melanoma
[28] = tested on: CCRF-CEM leukemia
[29] = tested on: KM20L2 colon
[30] = tested on: HCC-2998 colon
[31] = tested on: NCI-H460 lung
[32] = tested on: UACC-62 melanoma
[33] = tested on: LOX IMVI melanoma
[34] = tested on: HT29 colon
[35] = tested on: DMS 273 small cell lung
[36] = tested on: NCI-H522 lung
[37] = tested on: LXFL 529 NSCLC
[38] = tested on: K-562 leukemia
[39] = tested on: OVCAR-8 ovarian
[40] = tested on: KM12 colon
[41] = tested on: OVCAR-3 ovarian
[42] = tested on: RXF 393 renal
[43] = tested on: SNB-78 CNS
[44] = tested on: EKVX NSCLC
[45] = tested on: HCT-116 colon
[46] = tested on: HL-60(TB) leukemia
[47] = tested on: A498 renal
[48] = tested on: M14 melanoma
[49] = tested on: DMS 114 small cell lung
[50] = tested on: HOP-92 NSCLC
[51] = tested on: UO-31 renal
[52] = tested on: SK-MEL-5 melanoma
[53] = tested on: RPMI-8226 leukemia
[54] = tested on: HOP-62 NSCLC
[55] = tested on: CAKI-1 renal
[56] = tested on: NCI-H226 lung
[57] = tested on: MALME-3M melanoma
[58] = tested on: RXF-631 renal
[59] = tested on: HCT-15 colon

Compound: CO[C@@H]1C=C[C@@]23c4cc5c(cc4C(=O)O[C@H]2CN(C)[C@H]3C1)OCO5
- TGI [1]: > 100 µM
- TGI [2]: > 100 µM
- TGI [3]: > 100 µM
- TGI [4]: > 100 µM
- TGI [5]: > 100 µM
- TGI [6]: > 100 µM
- TGI [7]: > 100 µM
- TGI [8]: > 100 µM
- TGI [9]: > 100 µM
- TGI [10]: > 100 µM
- TGI [11]: > 100 µM
- TGI [12]: > 100 µM
- TGI [13]: > 100 µM
- TGI [14]: > 100 µM
- TGI [15]: > 100 µM
- TGI [16]: > 100 µM
- TGI [17]: > 100 µM
- TGI [18]: > 100 µM
- TGI [19]: > 100 µM
- TGI [20]: > 100 µM
- TGI [21]: > 100 µM
- TGI [22]: > 100 µM
- TGI [23]: > 100 µM
- TGI [24]: > 100 µM
- TGI [25]: > 100 µM
- TGI [26]: > 100 µM
- TGI [27]: > 100 µM
- TGI [28]: > 100 µM
- TGI [29]: > 100 µM
- TGI [30]: > 100 µM
- TGI [31]: > 100 µM
- TGI [32]: > 100 µM
- TGI [33]: > 100 µM
- TGI [34]: > 100 µM
- TGI [35]: > 100 µM
- TGI [36]: > 100 µM
- TGI [37]: > 100 µM
- TGI [38]: > 100 µM
- TGI [39]: > 100 µM
- TGI [40]: > 100 µM
- TGI [41]: > 100 µM
- TGI [42]: > 100 µM
- TGI [43]: > 100 µM
- TGI [44]: > 100 µM
- TGI [45]: > 100 µM
- TGI [46]: > 100 µM
- TGI [47]: > 100 µM
- TGI [48]: > 100 µM
- TGI [49]: > 100 µM
- TGI [50]: > 100 µM
- TGI [51]: > 100 µM
- TGI [52]: > 100 µM
- TGI [53]: > 100 µM

Compound: Cc1cccc2c1N(C(=O)/C=C\C(=O)O)C(c1c(C)[nH]c3ccccc13)C2 (stereo unspecified)
- TGI [1]: > 10 µM
- TGI [2]: > 100 µM
- TGI [3]: 53.3 µM
- TGI [4]: > 100 µM
- TGI [5]: 79.3 µM
- TGI [6]: > 10 µM
- TGI [7]: > 100 µM
- TGI [8]: > 100 µM
- TGI [9]: > 10 µM
- TGI [54]: > 100 µM
- TGI [10]: > 10 µM
- TGI [11]: 36 µM
- TGI [12]: > 10 µM
- TGI [13]: > 100 µM
- TGI [14]: 40.6 µM
- TGI [15]: > 100 µM
- TGI [16]: > 100 µM
- TGI [18]: > 100 µM
- TGI [19]: 53.1 µM
- TGI [20]: > 100 µM
- TGI [55]: > 100 µM
- TGI [21]: > 100 µM
- TGI [22]: > 100 µM
- TGI [23]: > 100 µM
- TGI [56]: > 100 µM
- TGI [57]: 48.1 µM
- TGI [25]: > 100 µM
- TGI [26]: > 100 µM
- TGI [27]: > 100 µM
- TGI [28]: 78.2 µM
- TGI [29]: > 100 µM
- TGI [30]: 33.9 µM
- TGI [31]: > 100 µM
- TGI [32]: 41.8 µM
- TGI [34]: > 100 µM
- TGI [36]: 46.3 µM
- TGI [37]: 28.6 µM
- TGI [38]: > 100 µM
- TGI [39]: > 100 µM
- TGI [40]: > 100 µM
- TGI [41]: > 10 µM
- TGI [43]: > 100 µM
- TGI [44]: > 100 µM
- TGI [45]: 54.3 µM
- TGI [46]: 51.3 µM
- TGI [47]: > 100 µM
- TGI [48]: > 100 µM
- TGI [49]: 42.2 µM
- TGI [50]: 82.4 µM
- TGI [51]: > 100 µM
- TGI [52]: 32.8 µM
- TGI [53]: > 100 µM

Compound: CC1CC(=O)Nc2ccccc2N1C(=O)CN1CCC(CCCCN(C)C)CC1 (stereo unspecified)
- TGI [1]: > 100 µM
- TGI [2]: > 100 µM
- TGI [3]: > 100 µM
- TGI [4]: > 100 µM
- TGI [5]: > 100 µM
- TGI [6]: > 100 µM
- TGI [7]: > 100 µM
- TGI [8]: > 100 µM
- TGI [9]: > 100 µM
- TGI [54]: > 100 µM
- TGI [10]: > 100 µM
- TGI [58]: > 100 µM
- TGI [11]: > 100 µM
- TGI [12]: > 100 µM
- TGI [13]: > 100 µM
- TGI [15]: > 100 µM
- TGI [16]: > 100 µM
- TGI [17]: > 100 µM
- TGI [19]: > 100 µM
- TGI [20]: > 100 µM
- TGI [55]: > 100 µM
- TGI [21]: > 100 µM
- TGI [22]: > 100 µM
- TGI [23]: > 100 µM
- TGI [24]: > 100 µM
- TGI [56]: > 100 µM
- TGI [57]: > 100 µM
- TGI [25]: > 100 µM
- TGI [26]: > 100 µM
- TGI [27]: > 100 µM
- TGI [28]: > 100 µM
- TGI [29]: > 100 µM
- TGI [30]: > 100 µM
- TGI [31]: > 100 µM
- TGI [32]: > 100 µM
- TGI [33]: > 100 µM
- TGI [59]: > 100 µM
- TGI [34]: > 100 µM
- TGI [35]: > 100 µM
- TGI [36]: > 100 µM
- TGI [37]: > 100 µM
- TGI [38]: > 100 µM
- TGI [39]: > 100 µM
- TGI [40]: > 100 µM
- TGI [41]: > 100 µM
- TGI [42]: > 100 µM
- TGI [43]: > 100 µM
- TGI [44]: > 100 µM
- TGI [45]: > 100 µM
- TGI [46]: > 100 µM
- TGI [47]: > 100 µM
- TGI [48]: > 100 µM
- TGI [49]: > 100 µM
- TGI [51]: > 100 µM
- TGI [52]: > 100 µM
- TGI [53]: > 100 µM
